The values that follow are results of earlier work, collected in patent publication US8030432B2, “Copolymerization of hydroxytyrosol with flavonoids mediated by horseradish peroxidases” (The United States of America as represented by the …, priority 2009, dated 2011).

For series [1] the following is noted: addition of 300 mg/Kg; red meat and poultry.

As for catechin, in series [1], the inhibition of oxidation entry is reported as “showed inhibition of oxidation”. As to epigallocatechin-3-gallate [EGCG], the “decomposition at room temperature” value is “decompose at room temperature after a few minutes”.
